Test [1] concerns lettuce. The experiment in a line: Size of roots and leaves of harvested lettuce. It is filed as in vivo. To be noted: for Size of roots and leaves / plant growth compared with control: approximately eight weeks (two months) after sowing; for Leaves (each) Width: control 3-5 cm; for Root (as a whole) Width: control 6 cm; for Root (as a whole) Length: control 8 cm; for Leaves (each) Length: control 20-21 cm. The source says:
A commercial plant box as shown in FIG. 1A was used for the experiment. The bottom one half was filled with sandbox sand, and the top layer was filled with six inches of non-fertilized soil. The level of the soil was four inches below the top of the container. The plant box was partitioned into three sections with physical barriers in between, from the top of the soil to the bottom of the plant box, as illustrated in FIG. 1B.
A single straight line of 0.25-inch-deep trough was formed in each section. Then, lettuce seeds were placed in the trough according to the methods laid out in Table 1 below. Each section was watered daily with tap water.
Approximately eight weeks after sowing, a portion of each group was harvested, and size of the roots and leaves of the harvested lettuce was measured, as summarized in Table 3 below.

The subject of test [2] is lettuce. The experiment in a line: Browning of harvested and cut lettuce. It is filed as in vivo. The source says: Browning of the lettuce harvested at approximately eight weeks after sowing were examined for experimental groups 2 and 3. The cut end of the stalk and the cut area on the leaves were observed. First browning appeared on the cut end six days after harvesting and cutting.

The subject of test [3] is lettuce. The experiment in a line: Remaining lettuce observed until final harvest (wilting, size, pest holes). It is filed as in vivo. To be noted: approximately 14 weeks after sowing.
In a further test the test system is red azaleas. Put plainly: Flowering of red azaleas. It is filed as in vivo, azalea (red bird variety). To be noted: small amount of PCA crystals around the stem. An excerpt:
In one of the two azalea plants (red bird variety), small amount of PCA crystals were placed around the stem, and both were watered daily. The plant treated with PCA bloomed in three weeks, and the other plant bloomed in seven weeks.

The subject of a further test is pink azaleas. Put plainly: Flowering and sprouting of pink azaleas. In kind it is in vivo, pink azalea. The source says:
In the experimental plant, small amount of PCA crystals were placed around the stem, and both plants were watered daily.

In another test the test system is rice. To be noted: had been reported; cited from earlier work.
Where [4] appears, read: approximately eight weeks after sowing.

Entries after “also recorded” stand apart in the source; their conditions may differ.

As to `O=C(O)c1ccc(O)c(O)c1` [PCA crystals, protocatechuic acid], the “Size of roots and leaves / plant growth compared with control” value with lettuce [1] is “bigger roots and leaves than the control”. In addition, in the test with lettuce [1] (setting [4]), the “Leaves (each) Width” value is on record as 4-6 cm, the “Root (as a whole) Width” value came out at 9 cm, the “Root (as a whole) Length” value is 10 cm and the “Leaves (each) Length” value was 24 cm. Also, in the test on lettuce [2] (lettuce harvested approximately eight weeks after sowing), the “Time to first browning on the cut end after harvesting and cutting” value is “six”. Further, the “Browning in the cut areas of the leaves” value in the test on lettuce [2] (six days after cutting) is “no browning was observed; also recorded: no browning was seen where leaves were cut”. Also, the “Browning on cut end of the stalk compared with control” value with lettuce [2] (six days after harvesting and cutting) was “not as thick as in the control group; also recorded: did not show thick brown covering on the stump”. Besides, in the test on lettuce [3], the “Size of leaves and roots at final harvest, group 3 versus group 2” value was “larger and wider leaves and larger roots than experimental group 2”. For the same compound, the “Speed of flowering compared with untreated plant” value in the test with red azaleas is “more than twice as fast”. Further, in the test with red azaleas (watered daily, untreated plant seven weeks), the Time to bloom entry was “three”. In addition, the “Blooming compared with control plant” value with pink azaleas (approximately five weeks after placing PCA crystals around the stem) was “started to bloom before the control plant did, and had more flowers blooming than the control plant”. Also, the “Flowering, buds and shoots compared with control plant” value in the test on pink azaleas (approximately seven weeks after placing PCA crystals, control wilted) was “continued to flower and had more buds and taller shoot of stems than the control”. Further, in the test on pink azaleas (approximately six weeks after placing PCA crystals), the “Buds compared with control plant” value is “had many more buds on the top yet to flower”. The “Overall flowering, sprouting and budding compared with control” value with pink azaleas (summary) is “flowered sooner, added sprouts sooner, and had budding that lasted longer than the control”.

As for `O=C(O)c1ccc(O)c(O)c1` [PCA coating, protocatechuic acid], in the test on lettuce [1] (setting [4]), the “Shape of root and leaves compared with other groups” value was “the root was relatively narrower, and the leaves were relatively wider and shorter; also recorded: a different shaped single root”; the “Leaves (each) Width” value is on record as 4-7 cm; the “Root (as a whole) Width” value is reported as 3-5 cm; the “Root (as a whole) Length” value was 8-11 cm. Further, the “Leaves (each) Length” value in the test on lettuce [1] (setting [4]) is given as 17-18 cm.

As to `O=C(O)c1ccc(O)c(O)c1` [PCA, protocatechuic acid], the “Size of roots and leaves / plant growth compared with control” value in the test with lettuce [1] is “enhanced plant growth; larger root system and larger leaves than the control”. The “Effect on growth of some plant species, e.g., rice” value in the test on rice was “no effect on growth”.
